Earlier results in patent US6391881B1, “Thiourea derivatives of dihydropyridine NPY antagonists” (Bristol-Myers Squibb Company, priority 2000, dated 2002).
Blank lines part the entries; values can stand above or below the molecule they belong to.

What was measured:
[1] = test system: NPY-induced Ca++ entry in HEL cells
[2] = test system: NPY-induced contractions in guinea pig basilar artery
[3] = target: T1, human neuroblastoma cells (Homo sapiens, UniProt P25929)
T1 construct: displacing I-125 labeled NPY and PYY in human neuroblastoma cells
T1 sequence (P25929 1-384): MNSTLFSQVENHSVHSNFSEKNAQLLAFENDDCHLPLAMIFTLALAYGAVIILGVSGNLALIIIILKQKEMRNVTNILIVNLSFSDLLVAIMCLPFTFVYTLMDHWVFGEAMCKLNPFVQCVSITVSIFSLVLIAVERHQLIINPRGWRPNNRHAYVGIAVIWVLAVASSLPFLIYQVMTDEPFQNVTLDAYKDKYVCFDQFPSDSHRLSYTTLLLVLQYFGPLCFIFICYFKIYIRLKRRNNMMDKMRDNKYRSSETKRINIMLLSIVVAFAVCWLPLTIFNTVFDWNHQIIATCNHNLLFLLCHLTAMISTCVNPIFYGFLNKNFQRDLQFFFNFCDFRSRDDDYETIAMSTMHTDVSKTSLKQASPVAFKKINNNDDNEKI

[4] = test system: NPY-related increases in diastolic blood pressure; settings: anesthetized guinea pig model
[5] = test system: NPY-induced increase in intracellular Ca++ in SK-N-MG cells
[6] = target: T2, human neuroblastoma cells (SK-N-MC) (Homo sapiens, UniProt P25929)
T2 construct: displaces I-125 Bolton-Hunter labeled NPY in human neuroblastoma cells (SK-N-MC); host or cells: SK-N-MC human neuroblastoma cells (endogenous receptor; no transfection mentioned)
T2 sequence (P25929 1-384): T1 sequence (P25929 1-384)

[7] = test system: NPY-induced pressor response; settings: pithed rat

SMILES: N=C(NCCCc1cnc[nH]1)NCCC(c1cc(F)cc(F)c1)c1ccccn1 (centres unmarked) [He 90481]
antagonism of NPY-induced Ca++ entry (in words) [1]: weak but competitive antagonist | pA2, antagonism of NPY-induced Ca++ entry [1]: 4.43

SMILES: O=P(O)(O)OC1[C@H](OP(=O)(O)O)[C@H](O)C(O)[C@H](O)[C@H]1OP(=O)(O)O (stereo partly drawn) [D-Myo-inositol-1,2,6-triphosphate]
antagonism of NPY-induced contractions (in words) [2]: potent but non-competitive antagonist

displacement of I-125 labeled NPY and PYY (in words) [3]: displacing
SMILES: CN(C)CC1CCC(CN=C(N)c2ccc(C[C@@H](NC(=O)[C@@H](Cc3ccccc3)NS(=O)(=O)c3ccc4ccccc4c3)C(=O)N3CCCC3)cc2)CC1 (some centres unmarked) [SR 120819A]
antagonism of NPY-related increases in diastolic blood pressure (in words) [4]: antagonized

displacement of I-125 Bolton-Hunter labeled NPY (in words) [6]: displaces
SMILES: NC(N)=NCCC[C@@H](NC(=O)C(c1ccccc1)c1ccccc1)C(=O)NCc1ccc(O)cc1 [BIBP 3226]
antagonism of NPY-induced increase in intracellular Ca++ (in words) [5]: antagonized | antagonism of NPY-induced pressor response (in words) [7]: antagonizing
